Measurements reported in PubChem BioAssay AID248 (DTP/NCI, 2004).
Inconclusive results and toxic doses are left out.

System: L1210 leukemia ip in BDF1 mice, survival T/C
Assay: NCI In Vivo Anticancer Drug Screen. Data for tumor model L1210 Leukemia (intraperitoneal) in B6D2F1 (BDF1) mice
Conditions: higher = longer survival
In short: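 In this screen, tumor-bearing mice given compound are compared to those given vehicle, and their survival values are reported as a treated-to-control quotient.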

[1] = endpoint: mean survival time, dose: 75.0 mg/kg/injection, schedule: Q01DX001 (ip), vehicle: carboxymethylcellulose (CMC)
[2] = endpoint: mean survival time, dose: 100.0 mg/kg/injection, schedule: Q01DX001 (ip), vehicle: saline
[3] = endpoint: mean survival time, dose: 200.0 mg/kg/injection, schedule: Q01DX001 (ip), vehicle: saline
[4] = endpoint: mean survival time, dose: 400.0 mg/kg/injection, schedule: Q01DX001 (ip), vehicle: saline
[5] = endpoint: mean survival time, dose: 100.0 mg/kg/injection, schedule: Q04DX003 (ip), vehicle: other
[6] = endpoint: mean survival time, dose: 200.0 mg/kg/injection, schedule: Q04DX003 (ip), vehicle: other
[7] = endpoint: mean survival time, dose: 400.0 mg/kg/injection, schedule: Q04DX003 (ip), vehicle: other
[8] = endpoint: mean survival time, dose: 100.0 mg/kg/injection, schedule: Q04DX002 (ip), vehicle: Klucel (hydroxypropylcellulose) (HPC)
[9] = endpoint: mean survival time, dose: 200.0 mg/kg/injection, schedule: Q01DX001 (ip), vehicle: carboxymethylcellulose (CMC)
[10] = endpoint: mean survival time, dose: 200.0 mg/kg/injection, schedule: Q04DX003 (ip), vehicle: saline with Tween-80
[11] = endpoint: mean survival time, dose: 100.0 mg/kg/injection, schedule: Q04DX003 (ip), vehicle: saline with Tween-80

O=S(=O)(OCCCC1CC2C=CC1C2)c1ccc(Br)cc1 (stereo unspecified) was tested, and the T/C [1] was 104 % of control, the T/C (endpoint: mean survival time, dose: 75.0 mg/kg/injection, schedule: Q04DX003 (ip), vehicle: carboxymethylcellulose (CMC)) was 89 % of control and the T/C (endpoint: mean survival time, dose: 150.0 mg/kg/injection, schedule: Q01DX001 (ip), vehicle: carboxymethylcellulose (CMC)) was 91 % of control. For the same compound, the T/C (endpoint: mean survival time, dose: 150.0 mg/kg/injection, schedule: Q04DX003 (ip), vehicle: carboxymethylcellulose (CMC)) was 100 % of control and the T/C (endpoint: mean survival time, dose: 300.0 mg/kg/injection, schedule: Q04DX003 (ip), vehicle: carboxymethylcellulose (CMC)) was 98 % of control.
In the case of CSCSCC(NC(=O)c1ccccc1)C(=O)O (stereo unspecified), the T/C [2] is reported as 104 % of control, the T/C (endpoint: mean survival time, dose: 150.0 mg/kg/injection, schedule: Q04DX003 (ip), vehicle: saline) is reported as 90 % of control and the T/C [3] is reported as 104 % of control. The T/C (endpoint: mean survival time, dose: 300.0 mg/kg/injection, schedule: Q04DX003 (ip), vehicle: saline) was 87 % of control, the T/C [4] was 98 % of control and the T/C (endpoint: mean survival time, dose: 600.0 mg/kg/injection, schedule: Q04DX003 (ip), vehicle: saline) was 92 % of control.
In the case of CCCCNC(=O)Nc1cc(C)c(C)cc1C, the T/C (endpoint: mean survival time, dose: 25.0 mg/kg/injection, schedule: Q01DX009 (ip), vehicle: gum acacia) is reported as 106 % of control, the T/C (endpoint: mean survival time, dose: 50.0 mg/kg/injection, schedule: Q01DX009 (ip), vehicle: gum acacia) is reported as 96 % of control and the T/C (endpoint: mean survival time, dose: 100.0 mg/kg/injection, schedule: Q01DX009 (ip), vehicle: gum acacia) is reported as 88 % of control. The T/C (endpoint: mean survival time, dose: 100.0 mg/kg/injection, schedule: Q04DX003 (ip), vehicle: gum acacia) was 91 % of control, the T/C (endpoint: mean survival time, dose: 200.0 mg/kg/injection, schedule: Q01DX009 (ip), vehicle: gum acacia) was 92 % of control and the T/C (endpoint: mean survival time, dose: 200.0 mg/kg/injection, schedule: Q04DX003 (ip), vehicle: gum acacia) was 96 % of control. The T/C (endpoint: mean survival time, dose: 400.0 mg/kg/injection, schedule: Q04DX003 (ip), vehicle: gum acacia) was 87 % of control.
In the case of CCOc1cc(C=Nc2cccc(C(F)(F)F)c2)ccc1O, the T/C (endpoint: mean survival time, dose: 100.0 mg/kg/injection, schedule: Q01DX009 (ip), vehicle: other) is reported as 100 % of control, the T/C [5] is reported as 95 % of control and the T/C (endpoint: mean survival time, dose: 200.0 mg/kg/injection, schedule: Q01DX009 (ip), vehicle: other) is reported as 99 % of control. The T/C [6] was 90 % of control and the T/C [7] was 92 % of control.
With CC1=CC(C)C(=O)N(CC(C)N2CCCC2)C(C)=C1 (stereo unspecified) the T/C [1] was 102 % of control.
For CC[P+](C)(CC)c1ccccc1, the T/C (endpoint: mean survival time, dose: 15.0 mg/kg/injection, schedule: Q01DX001 (ip), vehicle: saline) was 98 % of control and the T/C (endpoint: mean survival time, dose: 30.0 mg/kg/injection, schedule: Q01DX001 (ip), vehicle: saline) was 101 % of control.
In the case of CC1=CC=CC(C)(C)CC1=O, the T/C [5] is reported as 102 % of control, the T/C [6] is reported as 91 % of control and the T/C [7] is reported as 95 % of control.
CN(C)C(=O)Oc1c(Cl)c(Cl)c(OC(=O)N(C)C)c(Cl)c1Cl was tested, and the T/C [8] was 94 % of control, the T/C (endpoint: mean survival time, dose: 200.0 mg/kg/injection, schedule: Q04DX002 (ip), vehicle: Klucel (hydroxypropylcellulose) (HPC)) was 105 % of control and the T/C (endpoint: mean survival time, dose: 400.0 mg/kg/injection, schedule: Q04DX002 (ip), vehicle: Klucel (hydroxypropylcellulose) (HPC)) was 90 % of control.
In the case of COC(=O)C(Cc1ccc(N(CCCl)CCCl)cc1)N=NNc1nc[nH]c1C(N)=O (stereo unspecified), the T/C (endpoint: mean survival time, dose: 11.0 mg/kg/injection, schedule: Q03HX024 (ip), vehicle: other) is reported as 150 % of control, the T/C (endpoint: mean survival time, dose: 17.0 mg/kg/injection, schedule: Q03HX024 (ip), vehicle: other) is reported as 176 % of control and the T/C (endpoint: mean survival time, dose: 25.0 mg/kg/injection, schedule: Q03HX024 (ip), vehicle: other) is reported as 157 % of control. For the same compound, the T/C (endpoint: mean survival time, dose: 38.0 mg/kg/injection, schedule: Q01DX009 (ip), vehicle: other) was 152 % of control, the T/C (endpoint: mean survival time, dose: 56.0 mg/kg/injection, schedule: Q01DX009 (ip), vehicle: other) was 114 % of control and the T/C (endpoint: mean survival time, dose: 88.0 mg/kg/injection, schedule: Q04DX003 (ip), vehicle: other) was 166 % of control. For the same compound, the T/C (endpoint: mean survival time, dose: 134.0 mg/kg/injection, schedule: Q04DX003 (ip), vehicle: other) was 160 % of control, the T/C [9] was 161 % of control and the T/C [6] was 103 % of control. For the same compound, the T/C (endpoint: mean survival time, dose: 300.0 mg/kg/injection, schedule: Q01DX001 (ip), vehicle: carboxymethylcellulose (CMC)) was 181 % of control, the T/C (endpoint: mean survival time, dose: 375.0 mg/kg/injection, schedule: Q01DX001 (ip), vehicle: carboxymethylcellulose (CMC)) was 151 % of control and the T/C (endpoint: median survival time, dose: 12.5 mg/kg/injection, schedule: Q01DX009 (ip), vehicle: steriod suspending solution) was 122 % of control. The T/C (endpoint: median survival time, dose: 50.0 mg/kg/injection, schedule: Q01DX009 (ip), vehicle: steriod suspending solution) was 105 % of control and the T/C (endpoint: median survival time, dose: 100.0 mg/kg/injection, schedule: Q01DX009 (ip), vehicle: steriod suspending solution) was 88 % of control.
Cc1ccc(C(c2ccc(C)c(C)c2)C(O)C(O)C(O)C(O)CO)cc1C (stereo unspecified) was tested, and the T/C (endpoint: mean survival time, dose: 100.0 mg/kg/injection, schedule: Q01DX001 (ip), vehicle: Klucel (hydroxypropylcellulose) (HPC)) was 92 % of control, the T/C [2] was 87 % of control and the T/C (endpoint: mean survival time, dose: 200.0 mg/kg/injection, schedule: Q01DX001 (ip), vehicle: Klucel (hydroxypropylcellulose) (HPC)) was 100 % of control. The T/C [3] was 91 % of control and the T/C [4] was 89 % of control.
With CCN(Cc1ccccc1)C(=S)NC1CCCCC1 the T/C (endpoint: mean survival time, dose: 100.0 mg/kg/injection, schedule: Q04DX002 (ip), vehicle: saline) was 96 % of control, the T/C (endpoint: mean survival time, dose: 200.0 mg/kg/injection, schedule: Q04DX002 (ip), vehicle: saline) was 96 % of control and the T/C (endpoint: mean survival time, dose: 400.0 mg/kg/injection, schedule: Q04DX002 (ip), vehicle: saline) was 100 % of control.
For c1ccc(-c2nc(Oc3ccc(Oc4nc(-c5ccccc5)nc(-c5ccccc5)n4)cc3)nc(-c3ccccc3)n2)cc1, the T/C (endpoint: mean survival time, dose: 25.6 mg/kg/injection, schedule: Q04DX002 (ip), vehicle: saline with Tween-80) was 91 % of control, the T/C (endpoint: mean survival time, dose: 64.0 mg/kg/injection, schedule: Q04DX002 (ip), vehicle: saline with Tween-80) was 97 % of control and the T/C (endpoint: mean survival time, dose: 160.0 mg/kg/injection, schedule: Q04DX002 (ip), vehicle: saline with Tween-80) was 87 % of control. For the same compound, the T/C [10] was 86 % of control and the T/C (endpoint: mean survival time, dose: 400.0 mg/kg/injection, schedule: Q04DX002 (ip), vehicle: saline with Tween-80) was 97 % of control.
With CCN(CC)Cc1c(C)cc2oc(=O)c3c(c2c1O)CCCC3 the T/C (endpoint: mean survival time, dose: 100.0 mg/kg/injection, schedule: Q01DX001 (ip), vehicle: carboxymethylcellulose (CMC)) was 93 % of control and the T/C [9] was 93 % of control.
O=C(Oc1ccccc1)c1ccccc1Cl was tested, and the T/C (endpoint: mean survival time, dose: 100.0 mg/kg/injection, schedule: Q01DX009 (ip), vehicle: Klucel (hydroxypropylcellulose) (HPC)) was 102 % of control, the T/C (endpoint: mean survival time, dose: 100.0 mg/kg/injection, schedule: Q01DX009 (ip), vehicle: saline with Tween-80) was 96 % of control and the T/C (endpoint: mean survival time, dose: 100.0 mg/kg/injection, schedule: Q04DX003 (ip), vehicle: Klucel (hydroxypropylcellulose) (HPC)) was 96 % of control. The T/C [11] was 100 % of control, the T/C (endpoint: mean survival time, dose: 200.0 mg/kg/injection, schedule: Q01DX009 (ip), vehicle: Klucel (hydroxypropylcellulose) (HPC)) was 98 % of control and the T/C (endpoint: mean survival time, dose: 200.0 mg/kg/injection, schedule: Q01DX009 (ip), vehicle: saline with Tween-80) was 101 % of control. The T/C (endpoint: mean survival time, dose: 200.0 mg/kg/injection, schedule: Q04DX003 (ip), vehicle: Klucel (hydroxypropylcellulose) (HPC)) was 96 % of control, the T/C [10] was 100 % of control and the T/C (endpoint: mean survival time, dose: 400.0 mg/kg/injection, schedule: Q01DX009 (ip), vehicle: Klucel (hydroxypropylcellulose) (HPC)) was 95 % of control. The T/C (endpoint: mean survival time, dose: 400.0 mg/kg/injection, schedule: Q01DX009 (ip), vehicle: saline with Tween-80) was 97 % of control, the T/C (endpoint: mean survival time, dose: 400.0 mg/kg/injection, schedule: Q04DX003 (ip), vehicle: Klucel (hydroxypropylcellulose) (HPC)) was 98 % of control and the T/C (endpoint: mean survival time, dose: 400.0 mg/kg/injection, schedule: Q04DX003 (ip), vehicle: saline with Tween-80) was 110 % of control.
CCCCOP(=O)(Cc1cc(C)cc(C)c1)OCCCC was tested, and the T/C [11] was 87 % of control and the T/C [10] was 101 % of control.
For COc1ccc(O)c2c(C(=O)c3ccccc3)c[nH]c12, the T/C (endpoint: mean survival time, dose: 25.0 mg/kg/injection, schedule: Q04DX002 (ip), vehicle: Klucel (hydroxypropylcellulose) (HPC)) was 87 % of control, the T/C (endpoint: mean survival time, dose: 50.0 mg/kg/injection, schedule: Q04DX002 (ip), vehicle: Klucel (hydroxypropylcellulose) (HPC)) was 95 % of control and the T/C [8] was 95 % of control.
CC(C)(C)C1=CC(=C(Cl)Cl)C=C(C(C)(C)C)C1=O was tested, and the T/C [5] was 97 % of control, the T/C [6] was 98 % of control and the T/C [7] was 93 % of control.
In the case of CC(Br)CCON1C(=O)c2ccccc2C1=O (stereo unspecified), the T/C (endpoint: mean survival time, dose: 50.0 mg/kg/injection, schedule: Q01DX001 (ip), vehicle: saline) is reported as 112 % of control, the T/C [2] is reported as 102 % of control and the T/C [3] is reported as 96 % of control. The T/C [4] was 96 % of control.
With Cc1ccc(C)n1CCO the T/C (endpoint: mean survival time, dose: 44.0 mg/kg/injection, schedule: Q01DX Z (ip), vehicle: saline) was 106 % of control, the T/C (endpoint: mean survival time, dose: 66.0 mg/kg/injection, schedule: Q01DX Z (ip), vehicle: saline) was 94 % of control and the T/C (endpoint: mean survival time, dose: 100.0 mg/kg/injection, schedule: Q01DX Z (ip), vehicle: saline) was 96 % of control.
In the case of CC(C)(C)c1ccccc1C(N)=O, the T/C [5] is reported as 101 % of control, the T/C [6] is reported as 109 % of control and the T/C [7] is reported as 91 % of control.
